Experimental data from patent US5591741A, “Fungicidal spiroheterocyclic derivatives” (American Cyanamid Company, priority 1993, dated 1997).

Assays:
[1] = test system: Leptosphaeria nodorum; assay: Activity against wheat leafspot (LN); type: in vivo; conditions: direct therapeutic foliar spray, 600 ppm, 6-8 days
Summary of the method: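 Therapeutic foliar spray: compound at 600 ppm applied to single-leaf wheat (cv Norman) 24 h after inoculation with 1.5×10^6 conidia/ml. Disease control scored after 6-8 days at 22° C and 70% humidity as lesions per leaf versus untreated or diluent-sprayed controls.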

[2] = test system: Pseudocercosporella herpotrichoides; assay: Activity against wheat eyespot in-vitro (PHI); type: cell-based; conditions: 10 ppm, 10 days, 20° C., mycelial growth
Summary of the method: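 Mycelial growth was scored after 10 days at 20 °C against untreated or diluent controls. The broth was half-strength potato dextrose, holding 10 ppm test compound (from acetone) and 5×10^4 fragments/ml of the eyespot fungus.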

[3] = test system: Alternaria solani; assay: Activity against tomato early blight (AS); type: in vivo; conditions: Table VI; tomato seedlings, contact prophylactic foliar spray, 4 days
Summary of the method: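 Plants were challenged with A. solani conidia (10^4 spores/ml) 24 h after a protective foliar spray of compound in 50:50 acetone/water plus 0.04% Tween 20. Held humid at 21° C for 4 days, then percent leaf area with lesions was scored as a rating relative to controls.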

[4] = test system: Erysiphe graminis f.sp. hordei; assay: Direct protectant activity against barley powdery mildew (EGP); type: in vivo; conditions: direct protectant foliar spray, 8 days
Summary of the method: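 Rating reflects percentage of leaf area with sporulation compared with untreated or diluent-sprayed controls. Protectant spray was applied to single-leaf barley (cv Golden Promise) 24 h before conidia inoculation. Plants were kept at 18 °C and 40% RH throughout, with 8 days of disease development.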

[5] = test system: Rhizoctonia solani; assay: Activity against Rhizoctonia in-vitro (RSI); type: cell-based; conditions: 10 ppm, 10 days, 20° C., mycelial growth
Summary of the method: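 Compound at a final 10 ppm (acetone vehicle) in half-strength PDB, inoculated with 5×10^4 fragments/ml of shaken-culture R. solani mycelium. After incubation at 20° C for 10 days, growth scored as a rating versus untreated or diluent-treated controls.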

[6] = test system: Erysiphe graminis f.sp. hordei; assay: Activity against barley powdery mildew, direct therapeutic (EGT); type: in vivo; conditions: direct therapeutic foliar spray, 600 ppm, up to 7 days
Summary of the method: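 A curative spray at 600 ppm was applied to single-leaf Golden Promise barley inoculated with powdery mildew conidia the previous day. After up to 7 days at 18 °C and 40% humidity, disease control was rated from percent leaf area sporulating relative to untreated or diluent-sprayed controls.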

[7] = test system: Botrytis cinerea; assay: Direct protectant activity against broad bean grey mould (BCB); type: in vivo; conditions: direct protectant foliar spray, 600 ppm, 4 days
Summary of the method: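 Protectant foliar test: lesion coverage assessed 4 days after inoculation and rated relative to untreated or diluent-sprayed plants. Compound applied at 600 ppm to cv The Sutton leaves 24 h before 10^6 conidia/ml suspension; incubation at 22 °C in high humidity.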

[8] = test system: Phytophthora infestans; type: in vivo; conditions: tomato, direct protectant foliar spray
[9] = test system: Pyricularia oryzae; type: in vivo; conditions: rice seedlings, direct therapeutic foliar spray, 600 ppm, 4-5 days
[10] = test system: Venturia inaequalis; assay: Activity against apple scab in-vitro (VII); type: cell-based; conditions: 10 ppm, 10 days, 20° C., mycelial growth
Summary of the method: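 V. inaequalis propagules (5×10^4/ml, malt agar-grown) were exposed in half-strength PDB to 10 ppm final test compound delivered in acetone. Growth was scored after incubation for 10 days at 20° C, as a rating relative to untreated or diluent-sprayed controls.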

[11] = test system: Plasmopara viticola; assay: Antisporulant activity against vine downy mildew (PVA); type: in vivo; conditions: vine leaves, antisporulant foliar spray, 600 ppm, 750 l/ha
Summary of the method: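 Cabernet Sauvignon vines (~8 cm) inoculated on lower leaf surfaces with 5×10^4 zoosporangia/ml, held 24 h at 21° C high humidity then 24 h glasshouse. Infected leaves sprayed underside with 600 ppm compound in 1:1 water/acetone, 0.04% Tween 20, 750 l/ha; 96 h glasshouse, 24 h humidity. Sporulating leaf area rated versus control.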

Compound | disease control rating LN [1] | disease control rating PHI [2] | disease control rating AS [3] | disease control rating EGP [4] | disease control rating RSI [5] | disease control rating EGT [6] | disease control rating BCB [7] | disease control rating PIP [8] | disease control rating PO [9] | disease control rating VII [10] | disease control rating PVA [11]
CCCCCCNC1COC2(CCC(C(C)(C)C)CC2)C1 (stereo not drawn) [Compound 40] | 0 (less than 50% disease control) | 1 (about 50-80% disease control) | 2 (greater than 80% disease control) | 2 (greater than 80% disease control) | 0 (less than 50% disease control) | 2 (greater than 80% disease control) | 0 (less than 50% disease control) | 0 (less than 50% disease control) | 0 (less than 50% disease control) | 0 (less than 50% disease control) | 0 (less than 50% disease control)
CCCCN(CCCC)C1COC2(CCC(c3ccccc3)CC2)C1 (stereo not drawn) [Compound 55] | 1 (about 50-80% disease control) | 0 (less than 50% disease control) | 0 (less than 50% disease control) | 2 (greater than 80% disease control) | 0 (less than 50% disease control) | 2 (greater than 80% disease control) | 2 (greater than 80% disease control) | 0 (less than 50% disease control) | 0 (less than 50% disease control) | 1 (about 50-80% disease control) | 0 (less than 50% disease control)
CCCCC(CC)NC1COC2(CCC(C(C)(C)C)CC2)C1 (stereo not drawn) [Compound 102] | 0 (less than 50% disease control) | 0 (less than 50% disease control) | 0 (less than 50% disease control) | 2 (greater than 80% disease control) | 0 (less than 50% disease control) | 2 (greater than 80% disease control) | 1 (about 50-80% disease control) | 0 (less than 50% disease control) | 0 (less than 50% disease control) | 2 (greater than 80% disease control) | 0 (less than 50% disease control)
CCC(C)(C)C1CCC2(CC1)CC(N1CC(C)CC(C)C1)CO2 (stereo not drawn) [Compound 52] | 0 (less than 50% disease control) | 1 (about 50-80% disease control) | 0 (less than 50% disease control) | 2 (greater than 80% disease control) | 1 (about 50-80% disease control) | 2 (greater than 80% disease control) | 0 (less than 50% disease control) | 0 (less than 50% disease control) | 0 (less than 50% disease control) | 1 (about 50-80% disease control) | 0 (less than 50% disease control)
CCCCCCNC1COC2(CCC(C(C)(C)C)CC2)C1 (stereo not drawn) [Compound 41] | 1 (about 50-80% disease control) | 1 (about 50-80% disease control) | 0 (less than 50% disease control) | 2 (greater than 80% disease control) | 0 (less than 50% disease control) | 2 (greater than 80% disease control) | 0 (less than 50% disease control) | 0 (less than 50% disease control) | 0 (less than 50% disease control) | 0 (less than 50% disease control) | 0 (less than 50% disease control)
CCCCCCN(C)C1COC2(CCC(C(C)(C)C3CCCCC3)CC2)C1 (stereo not drawn) [Compound 140] | 1 (about 50-80% disease control) | 2 (greater than 80% disease control) | 0 (less than 50% disease control) | 2 (greater than 80% disease control) | 2 (greater than 80% disease control) | 2 (greater than 80% disease control) | 0 (less than 50% disease control) | 0 (less than 50% disease control) | 0 (less than 50% disease control) | 2 (greater than 80% disease control) | 0 (less than 50% disease control)
CCCCN(Cc1cccnc1)C1COC2(CCC(C(C)(C)C)CC2)C1 (stereo not drawn) [Compound 48] | 0 (less than 50% disease control) | 0 (less than 50% disease control) | 2 (greater than 80% disease control) | 2 (greater than 80% disease control) | 0 (less than 50% disease control) | 2 (greater than 80% disease control) | 0 (less than 50% disease control) | 0 (less than 50% disease control) | 0 (less than 50% disease control) | 1 (about 50-80% disease control) | 0 (less than 50% disease control)
CCCCCCCCNC1COC2(C1)C1CC3CC(C1)CC2C3 (stereo not drawn) [Compound 115] | 0 (less than 50% disease control) | 1 (about 50-80% disease control) | 0 (less than 50% disease control) | 2 (greater than 80% disease control) | 0 (less than 50% disease control) | 2 (greater than 80% disease control) | 0 (less than 50% disease control) | 1 (about 50-80% disease control) | 0 (less than 50% disease control) | 2 (greater than 80% disease control) | 0 (less than 50% disease control)
CCCCNC1COC2(CCC(C(C)(C)C)CC2)C1 (stereo not drawn) [Compound 64] | 0 (less than 50% disease control) | 0 (less than 50% disease control) | 0 (less than 50% disease control) | 2 (greater than 80% disease control) | 0 (less than 50% disease control) | 2 (greater than 80% disease control) | 2 (greater than 80% disease control) | 2 (greater than 80% disease control) | 0 (less than 50% disease control) | 0 (less than 50% disease control) | 0 (less than 50% disease control)
